Data set [1] concerns S. aureus (MDR00231). Nature of the data set: Agar well-diffusion antimicrobial sensitivity assay. The data set is classed as cell-based, Staphylococcus aureus. The conditions noted are these: Staphylococcus aureus, read-out: Inhibition Zone (IZ).
For data set [2], the system named is S. epidermidis (MDR00223). Described as above. The format is cell-based, Staphylococcus epidermidis. The note with it: Staphylococcus epidermidis, read-out: Inhibition Zone (IZ).
The subject of data set [3] is E. coli (MDR00501). The data set is described as above. The format is cell-based. The conditions noted are these: Escherichia coli, read-out: Inhibition Zone (IZ).
The test system of data set [4] is C. albicans100 (MDR00100). The description is as above. The format is cell-based, Candida albicans. The conditions noted are these: Candida albicans, read-out: Inhibition Zone (IZ).
The subject of data set [5] is C. albicans200 (MDR00200). Described as above. The data set is classed as cell-based, Candida albicans. The note with it: Candida albicans, read-out: Inhibition Zone (IZ).
The test system of another data set is RBCs. The experiment in a line: Hemolytic assay. The format is cell-based. The note with it: human RBCs; compounds 1.0 mg/mL; Triton X-100 0.1% v/v; 37 °C, 35 min.
Data set [6] deals with S. aureus (MDR00231). Nature of the data set: MIC and MBC by broth microdilution. The data set is classed as cell-based, Staphylococcus aureus. The conditions noted are these: Staphylococcus aureus, read-out: MIC (mean ± SEM), S. aureus; broth microdilution.
The test system of data set [7] is S. epidermidis (MDR00223). The experiment in a line: MIC and MBC by broth microdilution. The data set is classed as cell-based, Staphylococcus epidermidis. The conditions noted are these: Staphylococcus epidermidis, read-out: MIC (mean ± SEM), S. epidermidis; broth microdilution. A general note: In broth dilution the organism is exposed to a series of concentrations in liquid medium.

Another data set has as its system B. subtilis (MDR00423). Nature of the data set: MIC and MBC by broth microdilution. The format is cell-based. The conditions noted are these: Bacillus subtilis, read-out: MIC (mean ± SEM), B. subtilis; broth microdilution.
Data set [8] concerns E. coli (MDR00501). Nature of the data set: MIC and MBC by broth microdilution. The data set is classed as cell-based. The note with it: Escherichia coli, read-out: MIC (mean ± SEM), E. coli; broth microdilution.
A further data set has as its system S. aureus biofilm. The experiment in a line: Staphylococcus biofilm mass reduction. The data set is classed as cell-based. The note with it: at their MIC.
The next data set has as its system S. epidermidis biofilm. Nature of the data set: Staphylococcus biofilm mass reduction. The format is cell-based. The conditions noted are these: at their MIC.

These results are taken from PMC8851638 (ACS Omega, 2022).

Converted amounts (≈) assume the structure as drawn. “And” between values parts separate entries of the source, which are not always exact repeats. Equal values may be shown once.

As to `N#CC(=Cc1ccc(Cl)cc1)C1=NC(=O)C(=Cc2cn(-c3ccccc3)nc2-c2ccccc2)S1` [Compound 5b, 3-(4-Chlorophenyl)-2-(5-((1,3-diphenyl-1H-pyrazol-4-yl)methylene)-4-oxo-4,5-dihydrothiazol-2-yl)acrylonitrile], the zone of inhibition at 100000 µg/mL is 24 ± 0.2 mm with S. aureus (MDR00231) [1]; 21 ± 0.1 mm in data set [2]; 22 ± 0.56 mm with E. coli (MDR00501) [3]; 23 ± 0.26 mm in data set [4]; 25 ± 0.77 mm in [5].

In the case of Triton X-100 [reference compound], the “%lysis of RBCs” value with RBCs is 95.12% and 95.12 ± 0.721%.

On to `Cc1ccc(-c2nn(-c3ccccc3)cc2C=C(C#N)C2=NC(=O)CS2)cc1` [Compound 4b, 2-(4-Oxo-4,5-dihydrothiazol-2-yl)-3-(1-phenyl-3-(p-tolyl)-1H-pyrazol-4-yl)acrylonitrile], for which the zone of inhibition at 100000 µg/mL is 20 ± 0.2 mm in the data set with S. aureus (MDR00231) [1]; 19 ± 0.31 mm in data set [2]; 22 ± 0.6 mm in the data set with E. coli (MDR00501) [3]; 22 ± 0.1 mm in data set [4]; 23 ± 0.22 mm in [5].

Regarding `CCOC(=O)C=c1[nH]c(=O)c(=Cc2cn(-c3ccccc3)nc2-c2ccc(C)cc2)s1` [Compound 3d, Ethyl-2-(4-oxo-5-((1-phenyl-3-(p-tolyl)-1H-pyrazol-4-yl)methylene)thiazolidin-2-ylidene)-acetate], the zone of inhibition at 100000 µg/mL was found to be 15 ± 0.78 mm in the data set on S. aureus (MDR00231) [1]; 16 ± 0.1 mm in [2]; 15 ± 0.67 mm in the data set on E. coli (MDR00501) [3]; 13 ± 0.6 mm in data set [4]; 16 ± 0.22 mm in data set [5].

On to `Cc1c(NN=C2SC(C(C#N)=Cc3ccccc3)=NC2=O)c(=O)n(-c2ccccc2)n1C` [Compound 15a, 2-(5-(2-(1,5-Dimethyl-3-oxo-2-phenyl-2,3-dihydro-1H-pyrazol-4-yl)hydrazono)-4-oxo-4,5-dihydrothiazol-2-yl)-3-phenylacrylonitrile], for which the zone of inhibition at 100000 µg/mL in the data set on S. aureus (MDR00231) [1] came to 16 ± 0.59 mm; in [2], 18 ± 0.56 mm; with E. coli (MDR00501) [3], 15 ± 0.77 mm; in data set [4], 16 ± 0.44 mm; in data set [5] it was 20 ± 0.58 mm.

For `O=C(O)c1cn(C2CC2)c2cc(N3CCNCC3)c(F)cc2c1=O` [CIP, Ciprofloxacin, reference compound], the minimal inhibitory concentration (MIC) in the data set with S. aureus (MDR00231) [6] was 0.48 ± 0.1 µg/mL (≈ 1.45 µM); in data set [7], 0.47 ± 0.2 µg/mL (≈ 1.42 µM); in the data set with B. subtilis (MDR00423), 0.48 ± 0.3 µg/mL (≈ 1.45 µM); in the data set with E. coli (MDR00501) [8] it was 0.46 ± 0.4 µg/mL (≈ 1.39 µM). In addition, the entries for the “reduction of biofilm formation” value with S. aureus biofilm and in the data set on S. epidermidis biofilm were 43.2% and 38%, respectively. Moreover, in the data set on RBCs, the “%lysis of RBCs” value is 16.2% and 16.2 ± 0.5%.

As for `Cc1c(NN=C2SC(CC#N)=NC2=O)c(=O)n(-c2ccccc2)n1C` [Compound 14, 2-(5-(2-(1,5-Dimethyl-3-oxo-2-phenyl-2,3-dihydro-1H-pyrazol-4-yl)hydrazono)-4-oxo-4,5-dihydrothiazol-2-yl)acetonitrile], the zone of inhibition at 100000 µg/mL in the data set on S. aureus (MDR00231) [1] was 16 ± 0.21 mm; in data set [2] it was 19 ± 0.23 mm; in the data set on E. coli (MDR00501) [3], 17 ± 0.35 mm; in [4], 18 ± 0.66 mm; in [5], 20 ± 0.88 mm.

As to `Cc1c(NN=C2SC(C(C#N)=Cc3ccc(Cl)cc3)=NC2=O)c(=O)n(-c2ccccc2)n1C` [Compound 15b, 3-(4-Chlorophenyl)-2-(5-(2-(1,5-dimethyl-3-oxo-2-phenyl-2,3-dihydro-1H-pyrazol-4-yl)hydrazono)-4-oxo-4,5-dihydrothiazol-2-yl)acrylonitrile], the zone of inhibition at 100000 µg/mL in the data set on S. aureus (MDR00231) [1] turned out to be 18 ± 0.44 mm; in data set [2], 16 ± 0.25 mm; in the data set on E. coli (MDR00501) [3] it was 16 ± 0.85 mm; in data set [4], 16 ± 0.34 mm; in data set [5], 18 ± 0.76 mm.

In the case of `N#CC(=Cc1ccc([N+](=O)[O-])cc1)C1=NC(=O)C(=Cc2cn(-c3ccccc3)nc2-c2ccccc2)S1` [Compound 5c, 2-(5-((1,3-Diphenyl-1H-pyrazol-4-yl)methylene)-4-oxo-4,5-dihydrothiazol-2-yl)-3-(4-nitrophenyl)acrylonitrile], the zone of inhibition at 100000 µg/mL in the data set with S. aureus (MDR00231) [1] amounted to 22 ± 0.66 mm; in data set [2] it was 24 ± 0.28 mm; in the data set on E. coli (MDR00501) [3] it was 21 ± 0.45 mm; in [4], 21 ± 0.52 mm; in data set [5] it was 24 ± 0.13 mm.

`CCOC(=O)C=c1[nH]c(=O)c(=Cc2cn(-c3ccccc3)nc2-c2ccccc2)s1` [Compound 3c, Ethyl 2-(5-((1,3-Diphenyl-1H-pyrazol-4-yl)methylene)-4-oxothiazolidin-2-ylidene)acetate]: the zone of inhibition at 100000 µg/mL with S. aureus (MDR00231) [1] was found to be 13 ± 0.46 mm; in data set [2] it was 15 ± 0.7 mm; in the data set with E. coli (MDR00501) [3], 18 ± 0.33 mm; in data set [4], 15 ± 0.45 mm; in data set [5], 14 ± 0.3 mm.

Turning to `Cc1ccc(-c2nn(-c3ccccc3)cc2C=c2sc(=CC#N)[nH]c2=O)cc1` [Compound 3b, 2-(4-Oxo-5-((1-phenyl-3-(p-tolyl)-1H-pyrazol-4-yl)methylene)thiazolidin-2-ylidene)acetonitrile], the zone of inhibition at 100000 µg/mL was 15 ± 0.63 mm with S. aureus (MDR00231) [1]; 17 ± 0.21 mm in data set [2]; 16 ± 0.34 mm in the data set on E. coli (MDR00501) [3]; 13 ± 0.22 mm in [4]; 15 ± 0.8 mm in data set [5].

`CCOC(=O)c1c(N)csc1-c1cn(-c2ccccc2)nc1-c1ccccc1` [Compound 7a, Ethyl 4-Amino-2-(1,3-diphenyl-1H-pyrazol-4-yl)thiophene-3-carboxylate]: the zone of inhibition at 100000 µg/mL in the data set with S. aureus (MDR00231) [1] came out at 24 ± 0.4 mm; in data set [2], 21 ± 0.12 mm; with E. coli (MDR00501) [3] it was 22 ± 0.41 mm; in data set [4], 21 ± 0.32 mm; in data set [5] it was 25 ± 0.33 mm.

For orientation: MIC means the least concentration at which growth counts as inhibited.
